Measurements reported in US20250366503A1, “NOVEL GLUCOPYRANOSIDE COMPOSITIONS FOR SWEETNESS ENHANCEMENT” (International Flavors & Fragrances Inc., priority 2022, published 2025).

Assay: Sweetness enhancement of sucrose by isolated compounds (flavor profile)
Conditions: for Flavor Profile: 6% sucrose in water; for Enhancement of the sweetness of sweetness modifiers: general statement; for Sweetness and sugary mouthfeel enhancement: summary statement
Protocol: A sucrose solution (6%) was prepared in water and used as the base solution. Sucrose solutions of lipedoside B-IIIb, ligurobustoside E, ligurobustoside C, CPD5, ligurobustoside K ligurobustoside I and CPD6 were each prepared at 0.1-2 ppm. Flavor profiles of the sucrose solutions with added lipedoside B-IIIb, ligurobustoside E, ligurobustoside C, CPD5, ligurobustoside K and CPD6 are reported in the following: […]

Molecule	Flavor Profile (compound 0.1 ppm)	Flavor Profile (compound 1 ppm)	Flavor Profile (compound 2 ppm)	Enhancement of the sweetness of sweetness modifiers	Sweetness and sugary mouthfeel enhancement
lipedoside B-IIIb	Slight sweetness enhancement, lingering sweetness	Sweetness enhancement, lingering sweetness	Strong upfront sweetness and sugary mouthfeel	enhance the sweetness of sweetness modifiers without undesirable off-notes	particularly strong sweetness and sugary mouthfeel enhancement
CC(C)=CCC/C(C)=C/CO[C@@H]1O[C@H](CO)[C@@H](OC(=O)/C=C/c2ccc(O)cc2)[C@H](O[C@@H]2O[C@@H](C)[C@H](O)[C@@H](O)[C@H]2O)[C@H]1O [Ligurobustoside C, ligurobustoside C]			Some upfront sweetness and mouthfeel enhancement	enhance the sweetness of sweetness modifiers without undesirable off-notes	
C=CC(C)(CCC=C(C)C)O[C@@H]1O[C@H](CO)[C@@H](OC(=O)/C=C/c2ccc(O)c(O)c2)[C@H](O[C@@H]2O[C@@H](C)[C@H](O)[C@@H](O)[C@H]2O)[C@H]1O (stereo partly drawn) [CPD5, (2R,3R,4R,5R,6S)-6-((3,7-dimethylocta-1,6-dien-3-yl)oxy)-5-hydroxy-2-(hydroxymethyl)-4-(((2S,3R,4R,5R,6S)-3,4,5-trihydroxy-6-methyltetrahydro-2H-pyran-2-yl)oxy)tetrahydro-2H-pyran-3-yl (E)-3-(3,4-dihydroxyphenyl)acrylate]			Moderate sweetness and mouthfeel enhancement	enhance the sweetness of sweetness modifiers without undesirable off-notes	
ligurobustoside K			Weak sweetness and mouthfeel enhancement		mild sweetness and sugary mouthfeel enhancement
CC(C)=CCC/C(C)=C/CO[C@@H]1O[C@H](COC(=O)/C=C/c2ccc(O)cc2)[C@@H](O)[C@H](O[C@@H]2O[C@@H](C)[C@H](O)[C@@H](O)[C@H]2O)[C@H]1O [Ligurobustoside E, ligurobustoside E]	Sweetness enhancement, lingering sweetness	Upfront sweetness, lingering sweetness		enhance the sweetness of sweetness modifiers without undesirable off-notes	particularly strong sweetness and sugary mouthfeel enhancement
C/C(=C\CO[C@@H]1O[C@H](CO)[C@@H](OC(=O)/C=C/c2ccc(O)cc2)[C@H](O[C@@H]2O[C@@H](C)[C@H](O)[C@@H](O)[C@H]2O)[C@H]1O)C/C=C\C(C)(C)O [ligurobustoside I]			Weak sweetness and mouthfeel enhancement		mild sweetness and sugary mouthfeel enhancement
CC(C)=CC(=O)/C=C(\C)CCO[C@@H]1O[C@H](CO)[C@@H](OC(=O)/C=C/c2ccc(O)cc2)[C@H](O[C@@H]2O[C@@H](C)[C@H](O)[C@@H](O)[C@H]2O)[C@H]1O [CPD6, (2R,3R,4R,5R,6R)-6-(((E)-3,7-dimethyl-5-oxoocta-3,6-dien-1-yl)oxy)-5-hydroxy-2-(hydroxymethyl)-4-(((2S,3R,4R,5R,6S)-3,4,5-trihydroxy-6-methyltetrahydro-2H-pyran-2-yl)oxy)tetrahydro-2H-pyran-3-yl (E)-3-(4-hydroxyphenyl)acrylate]			Weak lingering sweetness and mouthfeel enhancement		mild sweetness and sugary mouthfeel enhancement
